Laboratory results from ChEMBL document CHEMBL1147203, “Phosph(on)ate as a zinc-binding group in metalloenzyme inhibitors: X-ray crystal structure of the antiviral drug foscarnet complexed to human carbonic anhydrase I” (Bioorg Med Chem Lett, 2007).

Columns and labels:
[1] = biological target: Carbonic anhydrase 13 (Mus musculus, UniProt Q9D6N1); assay: Inhibition of mouse recombinant CA13 by CO2 hydration assay
[2] = biological target: Carbonic anhydrase 14 (Homo sapiens, UniProt Q9ULX7); assay: Inhibition of human recombinant CA14 by CO2 hydration assay
Sequence of Carbonic anhydrase 14 (Q9ULX7 whole entry): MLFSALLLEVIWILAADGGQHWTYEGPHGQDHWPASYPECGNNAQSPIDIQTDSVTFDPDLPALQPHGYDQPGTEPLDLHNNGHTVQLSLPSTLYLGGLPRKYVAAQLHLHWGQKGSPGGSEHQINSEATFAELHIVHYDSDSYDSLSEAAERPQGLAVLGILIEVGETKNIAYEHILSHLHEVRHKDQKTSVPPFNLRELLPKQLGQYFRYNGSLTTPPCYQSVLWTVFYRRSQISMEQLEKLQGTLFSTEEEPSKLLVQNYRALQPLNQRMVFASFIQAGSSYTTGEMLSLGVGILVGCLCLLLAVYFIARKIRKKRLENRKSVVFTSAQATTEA

[3] = biological target: Carbonic anhydrase 6 (Homo sapiens, UniProt P23280); assay: Inhibition of human recombinant CA6 by CO2 hydration assay
Sequence of Carbonic anhydrase 6 (P23280 whole entry): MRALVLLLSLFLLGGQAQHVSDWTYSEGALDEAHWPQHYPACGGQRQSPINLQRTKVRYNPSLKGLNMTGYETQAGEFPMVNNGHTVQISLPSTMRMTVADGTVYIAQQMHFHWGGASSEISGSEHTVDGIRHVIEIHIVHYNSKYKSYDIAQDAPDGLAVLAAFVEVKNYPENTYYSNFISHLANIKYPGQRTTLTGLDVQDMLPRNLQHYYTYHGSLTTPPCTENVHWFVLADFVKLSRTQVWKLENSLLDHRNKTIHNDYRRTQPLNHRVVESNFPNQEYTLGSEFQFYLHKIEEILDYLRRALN

[4] = biological target: Carbonic anhydrase 7 (Homo sapiens, UniProt P43166); assay: Inhibition of human recombinant CA7 by CO2 hydration assay
Sequence of Carbonic anhydrase 7 (P43166 whole entry): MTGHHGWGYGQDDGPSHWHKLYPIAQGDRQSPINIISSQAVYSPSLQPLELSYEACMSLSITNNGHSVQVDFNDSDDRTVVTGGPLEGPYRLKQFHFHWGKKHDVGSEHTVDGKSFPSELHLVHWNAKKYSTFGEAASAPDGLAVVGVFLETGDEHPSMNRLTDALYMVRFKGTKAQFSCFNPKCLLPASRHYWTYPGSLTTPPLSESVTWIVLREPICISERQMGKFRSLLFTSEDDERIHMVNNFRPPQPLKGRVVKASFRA

[5] = biological target: Carbonic anhydrase 12 (Homo sapiens, UniProt O43570); assay: Inhibition of human recombinant CA12 by CO2 hydration assay
Sequence of Carbonic anhydrase 12 (O43570 whole entry): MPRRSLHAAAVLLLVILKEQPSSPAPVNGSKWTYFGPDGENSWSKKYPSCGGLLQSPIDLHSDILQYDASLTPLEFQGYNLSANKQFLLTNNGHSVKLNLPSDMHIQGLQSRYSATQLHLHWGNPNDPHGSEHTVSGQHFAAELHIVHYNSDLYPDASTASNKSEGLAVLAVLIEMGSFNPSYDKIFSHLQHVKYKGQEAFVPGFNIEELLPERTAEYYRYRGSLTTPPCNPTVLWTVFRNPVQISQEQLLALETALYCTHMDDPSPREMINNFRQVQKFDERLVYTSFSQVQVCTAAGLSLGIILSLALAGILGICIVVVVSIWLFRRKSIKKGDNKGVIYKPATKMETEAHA

[6] = biological target: Carbonic anhydrase 5B, mitochondrial (Homo sapiens, UniProt Q9Y2D0); assay: Inhibition of human recombinant CA5B by CO2 hydration assay
Sequence of Carbonic anhydrase 5B, mitochondrial (Q9Y2D0 whole entry): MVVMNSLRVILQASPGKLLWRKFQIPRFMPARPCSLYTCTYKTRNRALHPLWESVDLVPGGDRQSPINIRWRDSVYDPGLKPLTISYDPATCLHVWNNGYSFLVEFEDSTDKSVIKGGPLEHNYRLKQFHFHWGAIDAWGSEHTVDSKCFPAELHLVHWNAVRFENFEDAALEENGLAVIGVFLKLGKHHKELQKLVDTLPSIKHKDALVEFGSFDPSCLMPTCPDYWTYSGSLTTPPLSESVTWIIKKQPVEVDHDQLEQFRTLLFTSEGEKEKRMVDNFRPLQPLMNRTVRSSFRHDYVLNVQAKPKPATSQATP

Sequence of Carbonic anhydrase 13 (Q9D6N1 whole entry): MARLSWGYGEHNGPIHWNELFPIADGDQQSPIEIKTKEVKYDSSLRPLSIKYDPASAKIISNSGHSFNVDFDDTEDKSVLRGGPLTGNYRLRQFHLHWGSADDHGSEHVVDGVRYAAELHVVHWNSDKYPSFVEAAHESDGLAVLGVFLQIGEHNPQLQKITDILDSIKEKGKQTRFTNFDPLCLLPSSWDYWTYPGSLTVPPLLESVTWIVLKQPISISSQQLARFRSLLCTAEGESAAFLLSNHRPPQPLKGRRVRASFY

## O=C(O)P(=O)(O)O [FOSCARNET SODIUM]
[1]
  Ki: 870 µM
[2]
  Ki: 3600 µM
[3]
  Ki: 1810 µM
[4]
  Ki: 560 µM
[5]
  Ki: 1290 µM
[6]
  Ki: 11800 µM
